# Where “and” joins values, the source holds several entries; their conditions need not be identical. Equal values may be shown once.
# Test system: PGD2
# Assay: not given
# Settings: dosed intranasally, phase I/II study, allergic rhinitis; cited from earlier work
SMILES,clinical safety,decrease in PGD2
Oc1cccc(Nc2ncc(F)c(Nc3cccc(O)c3)n2)c1 [Example R112],safe across a range of indicators,statistically significant decrease in PGD2

# Test system: not given
# Assay: not given
# Settings: phase II clinical trial, allergic rhinitis; cited from earlier work
row,SMILES,efficacy versus placebo
1,Oc1cccc(Nc2ncc(F)c(Nc3cccc(O)c3)n2)c1 [Example R112],lack of efficacy versus placebo

# Biological target: T1, recombinant human GST-SYK (Homo sapiens, UniProt P43405)
# T1 construct: purchased Carna Biosciences 08-176
# Assay: Homogeneous Time-Resolved Fluorescence (HTRF) assay for the recombinant human Syk enzyme
# Type: biochemical
# Settings: GST-hSYK 5 pM, ATP 25 μM, IC50 rated in classes, read-out: rhSYK Activity
# Method in brief: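 GST-hSYK (5 pM) was preincubated 10 min with inhibitor in 15 mM Tris-HCl pH 7.5, 0.01% tween 20, 2 mM DTT; reaction started with 250 nM biotinylated peptide, 5 mM Mg and 25 μM ATP, run 45 min at room temperature. Phosphopeptide detected by HTRF (Eu-anti-phosphotyrosine/SA-APC) after EDTA quench.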
row,SMILES,IC50
1,"CCOC(=O)CCc1cc(-c2cccc(Nc3nccc(C(F)(F)F)n3)c2)ncn1 [Example 3.44, ethyl 3-[6-(3-{[4-(trifluoromethyl)pyrimidin-2-yl]amino}phenyl)pyrimidin-4-yl]propanoate]",1 to 10 µM
2,"O=C(O)CCc1cc(-c2cccc(Nc3nccc(C(F)(F)F)n3)c2)ncn1 [Example 3.45, 3-[6-(3-{[4-(trifluoromethyl)pyrimidin-2-yl]amino}phenyl)pyrimidin-4-yl]propanoic acid]",0.1 to 1 µM
3,"COc1ccnc(Nc2cc(C)cc(-c3cc(CCC(=O)O)ncn3)c2)n1 [Example 3.47, 3-(6-{3-[(4-methoxypyrimidin-2-yl)amino]-5-methylphenyl}pyrimidin-4-yl)propanoic acid]",0.1 to 1 µM
4,"Cc1cc(Nc2nccc(C(F)(F)F)n2)cc(-c2ccncn2)c1 [Example 3.48, N-(3-methyl-5-pyrimidin-4-ylphenyl)-4-(trifluoromethyl)pyrimidin-2-amine]",0.1 to 1 µM
5,"CCOC(=O)CCc1cc(-c2cc(C)cc(Nc3nccc(C(F)(F)F)n3)c2)ncn1 [Example 3.49, ethyl 3-[6-(3-methyl-5-{[4-(trifluoromethyl)pyrimidin-2-yl]amino}phenyl)pyrimidin-4-yl]propanoate]",0.1 to 1 µM
6,"Cc1cc(Nc2nccc(C(F)(F)F)n2)cc(-c2cc(CCC(=O)O)ncn2)c1 [Example 3.50, 3-[6-(3-methyl-5-{[4-(trifluoromethyl)pyrimidin-2-yl]amino}phenyl)pyrimidin-4-yl]propanoic acid]",0.1 to 1 µM
7,"CCOC(=O)CCc1cc(-c2cc(C)cc(Nc3nccc(C)n3)c2)ncn1 [Example 3.51, ethyl 3-(6-{3-methyl-5-[(4-methylpyrimidin-2-yl)amino]phenyl}pyrimidin-4-yl)propanoate]",1 to 10 µM
8,"Cc1cc(Nc2nccc(C)n2)cc(-c2cc(CCC(=O)O)ncn2)c1 [Example 3.52, 3-(6-{3-methyl-5-[(4-methylpyrimidin-2-yl)amino]phenyl}pyrimidin-4-yl)propanoic acid]",1 to 10 µM
9,"CCOC(=O)CCc1cc(-c2cc(C)cc(Nc3nccc(C4CC4)n3)c2)ncn1 [Example 3.53, ethyl 3-(6-{3-[(4-cyclopropylpyrimidin-2-yl)amino]-5-methylphenyl}pyrimidin-4-yl)propanoate]",0.1 to 1 µM
10,"Cc1cc(Nc2nccc(C3CC3)n2)cc(-c2cc(CCC(=O)O)ncn2)c1 [Example 3.54, 3-(6-{3-[(4-cyclopropylpyrimidin-2-yl)amino]-5-methylphenyl}pyrimidin-4-yl)propanoic acid]",0.1 to 1 µM
11,"Cc1cc(Nc2nccc(C)n2)cc(-c2cnc(CCC(=O)O)nc2)c1 [Example 3.55, 3-(5-{3-methyl-5-[(4-methylpyrimidin-2-yl)amino]phenyl}pyrimidin-2-yl)propanoic acid]",0.1 to 1 µM and < 0.1 µM

# Other lines, results leading:
row,IC50,SMILES
1,< 0.1 µM,"Cc1cc(Nc2nccc(C3CC3)n2)cc(-c2cnc(CCC(=O)O)nc2)c1 [Example 3.57, 3-(5-{3-[(4-cyclopropylpyrimidin-2-yl)amino]-5-methylphenyl}pyrimidin-2-yl)propanoic acid]"
2,< 0.1 µM,"Cc1cc(Nc2nccc(C(F)(F)F)n2)cc(-c2cnc(OC3CCC(C(=O)O)CC3)nc2)c1 (stereo not drawn) [Example 3.58, 4-{[5-(3-methyl-5-{[4-(trifluoromethyl)pyrimidin-2-yl]amino}phenyl)pyrimidin-2-yl]oxy}cyclohexanecarboxylic acid]"
3,< 0.1 µM,"Cc1cc(Nc2nccc(C(F)(F)F)n2)cc(-c2cnc(OC3CCC(C(=O)O)CC3)nc2)c1 (stereo not drawn) [Example 3.59, 4-{[5-(3-methyl-5-{[4-(trifluoromethyl)pyrimidin-2-yl]amino}phenyl)pyrimidin-2-yl]oxy}cyclohexanecarboxylic acid]"
4,< 0.1 µM,"Cc1cc(Nc2nccc(C(F)(F)F)n2)cc(-c2cnc(OC3CCC(C(=O)O)CC3)nc2)c1 (stereo not drawn) [Example 3.60, 4-{[5-(3-methyl-5-{[4-(trifluoromethyl)pyrimidin-2-yl]amino}phenyl)pyrimidin-2-yl]oxy}cyclohexanecarboxylic acid]"
5,0.1 to 1 µM and < 0.1 µM,"Cc1cc(Nc2nccc(C)n2)cc(-c2cnc(CCC(=O)O)nc2)c1 [Example 3.61, 3-(5-{3-methyl-5-[(4-methylpyrimidin-2-yl)amino]phenyl}pyrimidin-2-yl)propanoic acid]"
6,< 0.1 µM,"Cc1cc(Nc2nccc(C(F)(F)F)n2)cc(-c2cnc(CCC(=O)O)nc2)c1 [Example 3.62, 3-[5-(3-methyl-5-{[4-(trifluoromethyl)pyrimidin-2-yl]amino}phenyl)pyrimidin-2-yl]propanoic acid]"
7,< 0.1 µM,"Cc1cc(Nc2nccc(C(F)(F)F)n2)cc(-c2cnc(NC3(C(N)=O)CC3)nc2)c1 [Example 4.1, 1-{[5-(3-methyl-5-{[4-(trifluoromethyl)pyrimidin-2-yl]amino}phenyl)pyrimidin-2-yl]amino}cyclopropanecarboxamide]"
8,< 0.1 µM,"Cc1cc(Nc2nccc(C(F)F)n2)cc(-c2cnc(C[C@H]3CC[C@H](C(=O)O)CC3)nc2)c1 [Example 5.1, trans-4-{[5-(3-{[4-(difluoromethyl)pyrimidin-2-yl]amino}-5-methylphenyl)pyrimidin-2-yl]methyl}cyclohexanecarboxylic acid]"

# Same assay, conditions: GST-hSYK 5 pM, ATP 25 μM, values in text, read-out: IC50
row,IC50,SMILES
1,0.0216 µM,"Cc1cc(Nc2nccc(C(F)(F)F)n2)cc(-c2cnc(NC3(C(N)=O)CC3)nc2)c1 [Example 4.1, 1-{[5-(3-methyl-5-{[4-(trifluoromethyl)pyrimidin-2-yl]amino}phenyl)pyrimidin-2-yl]amino}cyclopropanecarboxamide]"
2,0.0029 µM,"Cc1cc(Nc2nccc(C(F)F)n2)cc(-c2cnc(C[C@H]3CC[C@H](C(=O)O)CC3)nc2)c1 [Example 5.1, trans-4-{[5-(3-{[4-(difluoromethyl)pyrimidin-2-yl]amino}-5-methylphenyl)pyrimidin-2-yl]methyl}cyclohexanecarboxylic acid]"

# — patent US9416111B2, “Substituted diazine and triazine spleen tyrosine kinease (Syk) inhibitors” (Merck Sharp & Dohme Corp., priority 2012, dated 2016)
